Assay results from ChEMBL document CHEMBL5244273, “Tuberculosis: An Overview of the Immunogenic Response, Disease Progression, and Medicinal Chemistry Efforts in the Last Decade toward the Development of Potential Drugs for Extensively Drug-Resistant Tuberculosis Strains” (J Med Chem, 2021).
≈ marks a conversion by molar mass, not a printed value.

Tests used:
[1] = Cytotoxicity against HEK293T cells assessed as reduction in cell viability; format: toxicity, cell-based, HEK-293T; details: human
[2] = tested on: Mycobacterium tuberculosis; assay: Antimycobacterial activity against Mycobacterium tuberculosis H37Rv; format: functional
J774 = assay: Cytotoxicity against mouse J774 cells incubated for 24 hrs by MTT assay; format: toxicity, cell-based; details: j774, 24 h
[3] = tested on: Mycobacterium tuberculosis; assay: Antimycobacterial activity against Mycobacterium tuberculosis H37Rv ATCC 27294 by broth dilution method; format: functional
[4] = tested on: Mycobacterium tuberculosis; assay: Antimycobacterial activity against non replicating Mycobacterium tuberculosis by broth dilution method; format: functional
[5] = Selectivity index, ratio of GI50 for cytotoxicity against human HeLa cells to MIC for antitubercular activity against active stage of Mycobacterium tuberculosis H37Ra; format: toxicity, cell-based; details: read-out: Selectivity Index
[6] = tested on: Mycobacterium tuberculosis; assay: Antitubercular activity against active stage of Mycobacterium tuberculosis H37Ra; format: functional
[7] = Selectivity index, ratio of GI50 for cytotoxicity against human HeLa cells to MIC for antitubercular activity against dormant stage of Mycobacterium tuberculosis H37Ra; format: toxicity, cell-based; details: read-out: Selectivity Index
[8] = Selectivity index, ratio of GI50 for cytotoxicity against HUVEC cells to MIC for antitubercular activity against dormant stage of Mycobacterium tuberculosis H37Ra; format: toxicity, cell-based; details: human, read-out: Selectivity Index
[9] = Selectivity index, ratio of GI50 for cytotoxicity against human MCF7 cells to MIC for antitubercular activity against active stage of Mycobacterium tuberculosis H37Ra; format: toxicity, cell-based; details: read-out: Selectivity Index
[10] = tested on: Mycobacterium tuberculosis; assay: Antitubercular activity against dormant stage of Mycobacterium tuberculosis H37Ra; format: functional
MCF7 = assay: Cytotoxicity against human MCF7 cells assessed as cell growth inhibition; format: functional
[11] = Cytotoxicity against HUVEC cells assessed as cell growth inhibition; format: toxicity, cell-based; details: human
[12] = Selectivity index, ratio of GI50 for cytotoxicity against HUVEC cells to MIC for antitubercular activity against active stage of Mycobacterium tuberculosis H37Ra; format: toxicity, cell-based; details: human, read-out: Selectivity Index
HeLa = assay: Cytotoxicity against human HeLa cells assessed as cell growth inhibition; format: functional
[13] = Selectivity index, ratio of GI50 for cytotoxicity against human MCF7 cells to MIC for antitubercular activity against dormant stage of Mycobacterium tuberculosis H37Ra; format: toxicity, cell-based; details: read-out: Selectivity Index

Row | Compound | CC50 [1] [µM] | MIC90 [2] [µM] | MIC99 [2] [µM] | Activity (J774) [µg/mL] | MIC [3] [µg/mL] | MIC [4] [µg/mL] | selectivity ratio [5] | MIC [6] [µg/mL] | selectivity ratio [7] | selectivity ratio [8] | selectivity ratio [9] | MIC [10] [µg/mL] | GI50 (MCF7) [µg/mL] | GI50 [11] [µg/mL] | selectivity ratio [12] | GI50 (HeLa) [µg/mL] | selectivity ratio [13]
1 | CC(=O)N1/C(=C/c2ccc(NC(C)C)cc2)C(=O)c2ccccc21 | 19 | > 20 | > 20 |  |  |  |  |  |  |  |  |  |  |  |  |  | 
2 | CC(=O)N1/C(=C/c2cccc(-c3cnc4ccccc4c3)c2)C(=O)c2ccccc21 | 14 | 2.65 (≈ 1.03 µg/mL) | 3.13 (≈ 1.22 µg/mL) |  |  |  |  |  |  |  |  |  |  |  |  |  | 
3 | Cc1ccc(OCc2cn(C[C@@]3(C)Cn4cc([N+](=O)[O-])nc4O3)nn2)cc1 |  |  |  | > 40 | 1 (≈ 2.7 µM) | 2 (≈ 5.4 µM) |  |  |  |  |  |  |  |  |  |  | 
4 | CCc1ccc(OCc2cn(C[C@@]3(C)Cn4cc([N+](=O)[O-])nc4O3)nn2)cc1 |  |  |  | > 40 | 2 (≈ 5.2 µM) | 2 (≈ 5.2 µM) |  |  |  |  |  |  |  |  |  |  | 
5 | O=C(OCc1ccccc1)c1ccsc1NC(=O)[C@@H]1CCCN1 |  |  |  |  |  |  | > 11.8 | 21.1 (≈ 63.9 µM) | > 66.5 | > 66.5 | > 11.8 | 3.76 (≈ 11.4 µM) | > 250 | > 250 | > 11.8 | > 250 | > 66.5
6 | C[C@]1(Cn2cc(CN3CCOCC3)nn2)Cn2cc([N+](=O)[O-])nc2O1 |  |  |  | > 40 | 2 (≈ 5.72 µM) | 1 (≈ 2.86 µM) |  |  |  |  |  |  |  |  |  |  | 
7 | Cc1cccc(OCc2cn(C[C@@]3(C)Cn4cc([N+](=O)[O-])nc4O3)nn2)c1 |  |  |  | > 40 | 0.5 (≈ 1.35 µM) | 0.5 (≈ 1.35 µM) |  |  |  |  |  |  |  |  |  |  | 
8 | Cc1ccc(SCc2cn(C[C@@]3(C)Cn4cc([N+](=O)[O-])nc4O3)nn2)cc1 |  |  |  | > 40 | 2 (≈ 5.18 µM) | 1 (≈ 2.59 µM) |  |  |  |  |  |  |  |  |  |  | 
9 | O=C(OCC(F)(F)F)c1ccsc1NC(=O)[C@@H]1CCCN1 |  |  |  |  |  |  | 13.3 | 8.23 (≈ 25.5 µM) | 101 | > 231 | 10.9 | 1.08 (≈ 3.35 µM) | 89.7 (≈ 278 µM) | > 250 | > 30.4 | 109 (≈ 339 µM) | 83
10 | CCOC(=O)c1ccsc1NC(=O)[C@@H]1CCCN1 |  |  |  |  |  |  | 3.88 | 9.08 (≈ 33.8 µM) | 4.63 | > 32.8 | > 27.5 | 7.62 (≈ 28.4 µM) | > 250 | > 250 | > 27.5 | 35.3 (≈ 132 µM) | > 32.8
11 | C=CCOC(=O)c1ccsc1NC(=O)[C@@H]1CCCN1 |  |  |  |  |  |  | 4.08 | 23.2 (≈ 82.8 µM) | 46.7 | 73.3 | 4.16 | 2.03 (≈ 7.24 µM) | 96.6 (≈ 345 µM) | 149 (≈ 531 µM) | 6.41 | 94.9 (≈ 338 µM) | 47.6
12 | C[C@]1(Cn2cc(COc3cccc(F)c3)nn2)Cn2cc([N+](=O)[O-])nc2O1 |  |  |  | > 40 | 1 (≈ 2.67 µM) | 2 (≈ 5.34 µM) |  |  |  |  |  |  |  |  |  |  | 
13 | CC(=O)N1/C(=C/c2cccc(-c3ccc(Cl)cc3)c2)C(=O)c2ccccc21 | 4 | 6.44 (≈ 2.41 µg/mL) | 7.85 (≈ 2.93 µg/mL) |  |  |  |  |  |  |  |  |  |  |  |  |  | 
14 | O=C(Oc1ccccc1)c1ccsc1NC(=O)[C@@H]1CCCN1 |  |  |  |  |  |  | > 10.1 | 24.7 (≈ 78.2 µM) | > 10.6 | > 10.6 | > 10.1 | 23.7 (≈ 74.8 µM) | > 250 | > 250 | > 10.1 | > 250 | > 10.6
15 | Cc1ccccc1OCc1cn(C[C@@]2(C)Cn3cc([N+](=O)[O-])nc3O2)nn1 |  |  |  | > 40 | 0.5 (≈ 1.35 µM) | 2 (≈ 5.4 µM) |  |  |  |  |  |  |  |  |  |  | 
16 | C[C@]1(Cn2cc(COc3ccccc3F)nn2)Cn2cc([N+](=O)[O-])nc2O1 |  |  |  | > 40 | 0.25 (≈ 0.668 µM) | 0.5 (≈ 1.34 µM) |  |  |  |  |  |  |  |  |  |  | 
17 | C[C@]1(Cn2cc(COc3ccc(Br)cc3)nn2)Cn2cc([N+](=O)[O-])nc2O1 |  |  |  | > 40 | 0.12 (≈ 0.276 µM) | 0.25 (≈ 0.574 µM) |  |  |  |  |  |  |  |  |  |  | 
18 | CC(C)c1ccc(OCc2cn(C[C@@]3(C)Cn4cc([N+](=O)[O-])nc4O3)nn2)cc1 |  |  |  | > 40 | 0.5 (≈ 1.25 µM) | 1 (≈ 2.51 µM) |  |  |  |  |  |  |  |  |  |  | 
19 | COC(=O)c1sccc1NC(=O)[C@@H]1CCCN1 |  |  |  |  |  |  | 5.7 | 15.9 (≈ 62.4 µM) | 13.4 | 13.6 | 10.3 | 6.74 (≈ 26.5 µM) | 163 (≈ 641 µM) | 91.3 (≈ 359 µM) | 5.75 | 90.4 (≈ 355 µM) | 24.2
20 | O=C(OCC(Cl)(Cl)Cl)c1ccsc1NC(=O)[C@@H]1CCCN1 |  |  |  |  |  |  | > 12.3 | 20.4 (≈ 54.9 µM) | > 15.5 | > 15.5 | > 12.3 | 16.1 (≈ 43.3 µM) | > 250 | > 250 | > 12.3 | > 250 | > 15.5
21 | O=C1CC[C@@H](COC(=O)c2ccsc2NC(=O)[C@@H]2CCCN2)N1 |  |  |  |  |  |  | 20.2 | 9.46 (≈ 28 µM) | 28.6 | 13.3 | 15.6 | 6.67 (≈ 19.8 µM) | 148 (≈ 437 µM) | 88.6 (≈ 263 µM) | 9.36 | 191 (≈ 566 µM) | 22.1
22 | CC(=O)N1/C(=C/c2ccc(-c3ccc(OC(F)(F)F)cc3)cc2)C(=O)c2ccccc21 | 8 | 1.44 (≈ 0.61 µg/mL) | 3.19 (≈ 1.35 µg/mL) |  |  |  |  |  |  |  |  |  |  |  |  |  | 
23 | COC(=O)c1ccsc1NC(=O)[C@H]1CCCN1 |  |  |  |  |  |  | 8.43 | 10.8 (≈ 42.6 µM) | 10.4 | 10.9 | 16.5 | 8.78 (≈ 34.5 µM) | 179 (≈ 704 µM) | 95.8 (≈ 377 µM) | 8.84 | 91.4 (≈ 359 µM) | 20.4
24 | CC(=O)N1/C(=C/c2ccc(-c3ccc(F)cc3)cc2)C(=O)c2ccccc21 | 9 | 1.26 (≈ 0.45 µg/mL) | 1.98 (≈ 0.708 µg/mL) |  |  |  |  |  |  |  |  |  |  |  |  |  | 
25 | O=C(OC1CCCCC1)c1ccsc1NC(=O)[C@@H]1CCCN1 |  |  |  |  |  |  | 3.76 | 24.6 (≈ 76.4 µM) | 18.9 | 27.9 | 6.59 | 4.92 (≈ 15.3 µM) | 162 (≈ 504 µM) | 137 (≈ 426 µM) | 5.57 | 92.8 (≈ 288 µM) | 33
26 | COC(=O)c1ccsc1NC(=O)[C@@H]1CCCN1 |  |  |  |  |  |  | > 20.9 | 12 (≈ 47.1 µM) | > 74.6 | > 74.6 | > 20.9 | 3.35 (≈ 13.2 µM) | > 250 | > 250 | > 20.9 | > 250 | > 74.6
27 | C[C@]1(Cn2cc(COc3ccccn3)nn2)Cn2cc([N+](=O)[O-])nc2O1 |  |  |  | > 40 | 1 (≈ 2.8 µM) | 2 (≈ 5.6 µM) |  |  |  |  |  |  |  |  |  |  | 
28 | CC(=O)O[C@H]1C(=O)[C@@]2(C)[C@H]([C@H](OC(=O)c3ccccc3)[C@]3(O)C[C@H](OC(=O)[C@H](O)[C@@H](NC(=O)c4ccccc4)c4ccccc4)C(C)=C1C3(C)C)[C@]1(OC(C)=O)CO[C@@H]1C[C@@H]2O [PACLITAXEL] |  |  |  |  |  |  |  |  |  |  |  |  | 0.0021 (≈ 0.00246 µM) | > 10 |  | 0.0048 (≈ 0.00562 µM) | 
